Measurements from patent US20260042764A1, “COMPOSITIONS AND METHODS FOR INHIBITION OF KRAS” (TheRas, Inc., priority 2022, published 2026).

What was measured:
[1] = system: MKN1 cells (KRAS amplification); test: Cell-based pERK HTRF assay in MKN1 cells (Biological Example 5)
Description: (§1) Biological Example 5: Cell-based PERK HTRF assay in AsPC-1, SW1900, HPAC, Capan-2, RKN, H358, HCT116, KP-2, H1573, A549, MKN1, and HT1080 cells
(§2) The inhibition of ERK phosphorylation, as measured using the HTRF Advanced Phospho-ERK 1/2 (Thr202/Tyr204) Detection Assay kit (Perkin Elmer), was used to determine the effectiveness of test compounds in disrupting KRAS-driven protein/effector signaling in cells.
(§3) On day 1, cells were seeded into 96-well plates at 2.5×10^4 cells/well in 100 μL of complete growth media supplemented with 10% fetal bovine serum (FBS) and incubated at 37° C., in the presence of 5% CO2.
(§4) On day 2, cells were treated with compounds diluted in DMSO at 0.25% final DMSO concentration. Compounds were dosed in a 9-point concentration curve with three-fold dilution between concentrations. Cells were incubated in the presence of compound for two hours at 37° C. Following this treatment period, cells were harvested by aspirating the media, adding 40 μL of kit-supplied 1x lysis buffer per well, and shaking for 30 minutes at 250 rpm at room temperature.
(§5) Following cell lysis, samples were homogenized by pipetting up and down twenty times and 16 μL of cell lysate per well was transferred from the 96-well cell culture plate to two wells of a 384-well detection plate. A complete detection buffer was prepared by diluting D2 and Eu Cryptate antibodies 1:20 in kit-provided detection solution, 4 μL of complete detection buffer was then added to each well with lysate. Plates were incubated with gentle rocking for 24 hours at 4° C.
(§6) Following this incubation period, plates were centrifuged at 500×g for one minute and analyzed on a CLARIOstar plate reader. Data was imported into Microsoft Excel and the signal from the 665 nm channel was divided by the signal from the 620 nm channel. % pERK was calculated as: […]
(§7) Data was imported to the Prism software package (Graphpad) and EC50 values were calculated using the log (inhibitor) vs, response—variable slopc (Four parameters) model.

AsPC-1 cells (KRAS G12D) [2] = test: Cell-based pERK HTRF assay in AsPC-1 cells (Biological Example 5); details: Homo sapiens, ASPC1, AsPC-1 (KRAS G12D) cells
Description: as §1, §2, §3, §4, §5, §6, §7

HPAC cells (KRAS G12D) [3] = test: Cell-based pERK HTRF assay in HPAC cells (Biological Example 5)
Description: as §1, §2, §3, §4, §5, §6, §7

SW1900 cells (KRAS G12D) [4] = test: Cell-based pERK HTRF assay in SW1900 cells (Biological Example 5)
Description: as §1, §2, §3, §4, §5, §6, §7

H358 cells (KRAS G12C) [5] = test: 3D Cell viability assay in H358 cells (Biological Example 6); format: cell-based; details: H358 (KRAS G12C) spheroids, 72 hours
Description: (§8) Biological Example 6: 3D Cell viability assay in AsPC-1, SW1900, HPAC, Capan-2, RKN, H358, HCT116, KP-2, H1573, A549, MKN1, and HT1080 cells
(§9) The inhibition of cellular viability as a result of test compound treatment in a spheroid assay was measured using the CellTiter-Glow 3D Cell Viability Assay (Promega).
(§10) On Day 1, 1000 cells per well were seeded in 150 μL of complete growth media supplemented with 10% fetal bovine serum (FBS) and incubated at 37° C., in the presence of 5% CO2 in 96-well ultra-low attachment microplates (Corning) for 48 hours undisturbed to allow spheroids to form.
(§11) Following spheroid formation, cells were treated with compounds diluted in DMSO at 0.25% final DMSO concentration. Compounds were dosed in a 9-point concentration curve with three-fold dilution between concentrations. Cells were incubated in the presence of compound for 72 hours at 37° C., in the presence of 5% CO2.
(§12) Following this incubation period, the kit-provided CTG reagent was allowed to equilibrate for 30 minutes at room temperature, 150 μL of equilibrated CTG reagent was added to each well, and the plate was sealed before shaking at 250 rpm for 10 minutes at room temperature to lyse the cells, 150 μL of lysate per well was transferred to a 96-well plate and luminescence was read on a CLARIOstar plate reader.
(§13) Data was imported into the Prism software package (Graphpad) and EC50 values were calculated using the log (inhibitor) vs, response—variable slope (Four parameters) model.

AsPC-1 cells (KRAS G12D) [6] = test: 3D Cell viability assay in AsPC-1 cells (Biological Example 6); format: cell-based; details: AsPC-1 (KRAS G12D) spheroids, 72 hours
Description: as §8, §9, §10, §11, §12, §13

SW1900 cells (KRAS G12D) [7] = test: 3D Cell viability assay in SW1900 cells (Biological Example 6); format: cell-based; details: SW1990 (text: SW1900, KRAS G12D) spheroids, 72 hours
Description: as §8, §9, §10, §11, §12, §13

HCT116 cells (KRAS G13D) [8] = test: 3D Cell viability assay in HCT116 cells (Biological Example 6); format: cell-based; details: HCT116 (KRAS G13D) spheroids, 72 hours
Description: as §8, §9, §10, §11, §12, §13

[9] = system: Capan-2 cells (KRAS G12V); test: Cell-based pERK HTRF assay in Capan-2 cells (Biological Example 5)
Description: as §1, §2, §3, §4, §5, §6, §7

HPAC cells (KRAS G12D) [10] = test: 3D Cell viability assay in HPAC cells (Biological Example 6); format: cell-based; details: HPAC (KRAS G12D) spheroids
Description: as §8, §9, §10, §11, §12, §13

RKN cells (KRAS G12V) [11] = test: 3D Cell viability assay in RKN cells (Biological Example 6); format: cell-based; details: RKN (KRAS G12V) spheroids, 72 hours
Description: as §8, §9, §10, §11, §12, §13

RKN cells (KRAS G12V) [12] = test: Cell-based pERK HTRF assay in RKN cells (Biological Example 5)
Description: as §1, §2, §3, §4, §5, §6, §7

H358 cells (KRAS G12C) [13] = test: Cell-based pERK HTRF assay in H358 cells (Biological Example 5)
Description: as §1, §2, §3, §4, §5, §6, §7

HCT116 cells (KRAS G13D) [14] = test: Cell-based pERK HTRF assay in HCT116 cells (Biological Example 5)
Description: as §1, §2, §3, §4, §5, §6, §7

A549 cells (KRAS G12S) [15] = test: Cell-based pERK HTRF assay in A549 cells (Biological Example 5); details: Homo sapiens
Description: as §1, §2, §3, §4, §5, §6, §7

H1573 cells (KRAS G12A) = test: 3D Cell viability assay in H1573 cells (Biological Example 6); format: cell-based; details: Homo sapiens, NCI-H1573; H1573 (KRAS G12A) spheroids, 72 hours
Description: as §8, §9, §10, §11, §12, §13

HT1080 cells (NRAS) = test: Cell-based pERK HTRF assay in HT1080 cells (Biological Example 5); details: Homo sapiens, HT-1080
Description: as §1, §2, §3, §4, §5, §6, §7

A549 cells (KRAS G12S) [16] = test: 3D Cell viability assay in A549 cells (Biological Example 6); format: cell-based; details: Homo sapiens; A549 (KRAS G12S) spheroids, 72 hours
Description: as §8, §9, §10, §11, §12, §13

[17] = Homo sapiens, MKN-1, MKN cells (MKN1, KRAS amplification)
[18] = Homo sapiens, SW1990, SW1990 cells (text: SW1900, KRAS G12D)
[19] = Homo sapiens, Capan-2, Capan-2 (KRAS G12V) cells
[20] = Homo sapiens, NCI-H358, H358 (KRAS G12C) cells

| Structure (SMILES) | IC50 [1, 17] [nM] | IC50 (HPAC cells (KRAS G12D) [3]; Homo sapiens, HPAC) [nM] | IC50 (SW1900 cells (KRAS G12D) [4]; [18]) [nM] | IC50 (H358 cells (KRAS G12C) [5]; Homo sapiens, NCI-H358) [nM] | IC50 (AsPC-1 cells (KRAS G12D) [6]; Homo sapiens, ASPC1) [nM] | IC50 (SW1900 cells (KRAS G12D) [7]; Homo sapiens) [nM] | IC50 (HCT116 cells (KRAS G13D) [8]; Homo sapiens, HCT-116) [nM] | IC50 [9, 19] [nM] | IC50 (HPAC cells (KRAS G12D) [10]; Homo sapiens, HPAC, 72 h) [nM] | IC50 (RKN cells (KRAS G12V) [11]) [nM] | IC50 (RKN cells (KRAS G12V) [12]) [nM] | IC50 (H358 cells (KRAS G12C) [13]; [20]) [nM] | IC50 (HCT116 cells (KRAS G13D) [14]; Homo sapiens, HCT-116) [nM] | other results |
| --- | --- | --- | --- | --- | --- | --- | --- | --- | --- | --- | --- | --- | --- | --- |
| CCN(c1nc(OC[C@@]23CCCN2C[C@H](F)C3)nc2c(F)c(-c3ccc(F)c4sc(N)c(C#N)c34)c(C(F)(F)F)cc12)[C@H]1CC(=O)N2CCC[C@@H]12 (atropisomer, axis not shown; (aS)) [Compound 697, 2-amino-4-((S)-4-(ethyl((1S,7aS)-3-oxohexahydro-1H-pyrrolizin-1-yl)amino)-8-fluoro-2-(((2R,7aS)-2-fluorotetrahydro-1H-pyrrolizin-7a(5H)-yl)methoxy)-6-(trifluoromethyl)quinazolin-7-yl)-7-fluorobenzo[b]thiophene-3-carbonitrile] | ≤ 100 | ≤ 100 | ≤ 100 | ≤ 100 | ≤ 100 | ≤ 100 | 100 to 1000 | ≤ 100 | ≤ 100 | ≤ 100 | ≤ 100 | ≤ 100 | – | IC50 (AsPC-1 cells (KRAS G12D) [2]): ≤ 100 nM |
| CCN(c1nc(OCC23CCCN2CC(F)C3)nc2c(F)c(-c3ccc(F)c4sc(N)c(C#N)c34)c(C(F)(F)F)cc12)C1CC(C)N(C(=O)C2CC2(F)F)C1 (stereo not shown) [Compound 732] | – | – | – | – | – | – | – | – | – | ≤ 100 | ≤ 100 | – | – | IC50 ([1]; MKN cells (MKN1, KRAS amplification)): ≤ 100 nM; IC50 (HPAC cells (KRAS G12D) [3]): ≤ 100 nM; IC50 (SW1900 cells (KRAS G12D) [4]; SW1990 cells (text: SW1900, KRAS G12D)): ≤ 100 nM; IC50 (H358 cells (KRAS G12C) [5]): ≤ 100 nM; IC50 (AsPC-1 cells (KRAS G12D) [6]): ≤ 100 nM; IC50 (HCT116 cells (KRAS G13D) [14]): ≤ 100 nM; IC50 (SW1900 cells (KRAS G12D) [7]): ≤ 100 nM; IC50 (HCT116 cells (KRAS G13D) [8]): 100 to 1000 nM; IC50 ([9]; Capan-2 (KRAS G12V) cells): ≤ 100 nM; IC50 (HPAC cells (KRAS G12D) [10]; 72 hours): ≤ 100 nM; IC50 (H358 cells (KRAS G12C) [13]; H358 (KRAS G12C) cells): ≤ 100 nM |
| CCN(c1nc(OC[C@@]23CCCN2C[C@H](F)C3)nc2c(F)c(-c3ccc(F)c4sc(N)c(C#N)c34)c(C(F)(F)F)cc12)[C@H]1C[C@H](C)N(C(=O)[C@@H]2CC2(F)F)C1 (atropisomer, axis not shown) [Compound 751] | ≤ 100 | ≤ 100 | ≤ 100 | ≤ 100 | ≤ 100 | ≤ 100 | 100 to 1000 | ≤ 100 | ≤ 100 | ≤ 100 | ≤ 100 | ≤ 100 | ≤ 100 | – |
| N#Cc1c(N)sc2c(F)ccc(-c3c(C(F)(F)F)cc4c(N5CCCOCC5)nc(OC[C@@]56CCCN5C[C@H](F)C6)nc4c3F)c12 [Compound 232] | – | ≤ 100 | ≤ 100 | ≤ 100 | – | ≤ 100 | ≤ 100 | ≤ 100 | > 1000 | – | – | ≤ 100 | ≤ 100 | IC50 (A549 cells (KRAS G12S) [15]): 100 to 1000 nM; IC50 (H1573 cells (KRAS G12A)): ≤ 100 nM; IC50 (HT1080 cells (NRAS)): > 1000 nM; IC50 (A549 cells (KRAS G12S) [16]): ≤ 100 nM |
